Experimental data taken from patent US10544112B2, “Identification of ebsulfur analogues with broad-spectrum antifungal activity” (priority 2017, dated 2020).
≈ marks a conversion by molar mass, not a printed value.

Tests used:
[1] = test system: Aspergillus flavus ATCC MYA-3631 (strain K); assay: Antifungal MIC determination, filamentous fungi spores; format: cell-based; settings: all compounds
Experimental: (§1) Fungal MIC determination experiments were performed using untreated 96-well plates (Corning). Cells were counted either by using a hemocytometer (Hausser Scientific, Horsham, Pa., USA) or by measuring optical density at attenuance of 600 nm (OD600) by using a Genesys 20 spectrophotometer (Thermo Scientific, Waltham, Mass., USA). Spectrophotometric and colorimetric measurements in 96-well plates were performed using a SpectraMax M5 spectrometer (Molecular Devices, Sunnyvale, Calif., USA).
(§2) Yeast strains Candida albicans ATCC 10231 (strain A), C. albicans ATCC 64124 (strain B), and C. albicans ATCC MYA-2876(S) (strain C) were kindly provided by Dr. Jon Y. Takemoto (Utah State University, Logan, UT, USA). C. albicans ATCC MYA-90819(R) (strain D), C. albicans ATCC MYA-2310(S) (strain E), C. albicans ATCC 1237(R) (strain F), C. albicans ATCC MYA-1003(R) (strain G), Candida glabrata ATCC 2001 (strain H), Candida krusei ATCC 6258 (strain I), and Candida parapsilosis ATCC 22019 (strain J) were obtained from the American Type Culture Collection (ATCC, Manassas, Va., USA). The (S) and (R) indicate that ATCC reports these strains to be susceptible (S) and resistant (R) to ITC and FLC. The filamentous fungal strains Aspergillus flavus ATCC MYA-3631 (strain K), and Aspergillus terreus ATCC MYA-3633 (strain M) were also obtained from the American Type Culture Collection (ATCC, Manassas, Va., USA). Aspergillus nidulans ATCC 38163 (strain L) was kindly provided by Dr. Jon S. Thorson (University of Kentucky, Lexington, Ky., USA), respectively. Yeast strains were cultured at 35° C. Filamentous fungal strains were cultured at 25° C. and the spores were harvested. All fungal strains were cultured in RPMI 1640 medium (catalog # R6504, Sigma-Aldrich Chemical Co., St. Louis, Mo.) buffered to pH 7.0 with 0.165 M morpholinepropanesulfonic acid (MOPS) buffer (Sigma-Aldrich Chemical Co.).
(§3) The MIC values against fungal strains were determined based on a previously published protocol. MIC values for ebsulfur (2a) analogues against fungal cells were evaluated in 96-well plates as described in the CLSI document M27-A3 with minor modifications. […] Therefore, potato dextrose broth (PDB) was used to grow the yeast inocula of all strains tested, which were later diluted in RPMI 1640 medium to perform determination of MIC values. […] The tested compounds (10 mg/mL) were diluted to the working stocks (500 μg/mL) by addition of DMSO. Two-fold serial dilution of the working stocks was prepared by addition of RPMI 1640 medium (100 μL) and cell suspension (100 μL) to 96-well microtiter plate to achieve final drug and inoculum concentrations ranging from 12.5-0.02 μg/mL and 5×10^3 CFU/mL, respectively. Plates were incubated for 48 h at 35° C.
(§4) MIC assays for the spore-forming filamentous fungi, such as strain A. flavus ATCC MYA-3631 (strain K), were performed in a similar fashion. The filamentous fungal strains were first cultured at 25° C. on potato dextrose agar (PDA) plates for 3-5 days or until confluent. Spores were collected by washing the surface of the agar plates with dd H2O (5 mL) and then isolated the spores by gravity filtration (the spores are H2O soluble). […] Researchers working with spores should wear a facemask to prevent spore inhalation.

[2] = test system: Aspergillus terreus ATCC MYA-3633 (strain M); assay: as above; format: cell-based; settings: strain M, all compounds, spores
Experimental: as §1, §2, §3, §4

[3] = test system: Aspergillus nidulans ATCC 38163 (strain L); assay: as above; format: cell-based; settings: strain L; spores
Experimental: as §1, §2, §3, §4

[4] = test system: C. albicans ATCC MYA-2876(S) (strain C); assay: Antifungal MIC determination (CLSI M27-A3, 96-well); format: cell-based, Candida albicans; settings: strain C; compounds 1-4n and AmB; 48 h, RPMI 1640
Experimental: as §1, §2
as §3, with “C. […]” for “C.”

[5] = test system: C. albicans ATCC MYA-2310(S) (strain E); assay: as above; format: cell-based, Candida albicans; settings: strain E; compounds 1-4n and AmB; 48 h, RPMI 1640
Experimental: as §1, §2
as §3, with “C. […]” for “C.”

[6] = test system: Candida albicans ATCC 10231 (strain A); assay: as above; format: cell-based; settings: strain A; compounds 1-4n and AmB; 48 h, RPMI 1640
Experimental: as §1, §2
as §3, with “C. […]” for “C.”

[7] = test system: Candida krusei ATCC 6258 (strain I); assay: as above; format: cell-based; settings: strain I; for MIC-0: compounds 1-4n and AmB, 48 h, RPMI 1640
Experimental: as §1, §2
as §3, with “C. […]” for “C.”

[8] = test system: Candida parapsilosis ATCC 22019 (strain J); assay: as above; format: cell-based; settings: strain J; for MIC-0: compounds 1-4n and AmB, 48 h, RPMI 1640
Experimental: as §1, §2
as §3, with “C. […]” for “C.”

[9] = test system: Candida glabrata ATCC 2001 (strain H); assay: as above; format: cell-based; settings: strain H; for MIC-0: compounds 1-4n and AmB, 48 h, RPMI 1640
Experimental: as §1, §2
as §3, with “C. […]” for “C.”

[10] = test system: C. albicans ATCC 64124 (strain B); assay: microbe, parasite or virus in culture; format: cell-based, Candida albicans; settings: strain B; compounds 1-4n and AmB; 48 h, RPMI 1640
Experimental: as §1, §2
as §3, with “C. […]” for “C.”

[11] = test system: C. albicans ATCC 90819(R) (strain D); assay: microbe, parasite or virus in culture; format: cell-based, Candida albicans; settings: strain D; compounds 1-4n and AmB; 48 h, RPMI 1640
Experimental: as §1, §2
as §3, with “C. […]” for “C.”

[12] = test system: C. albicans ATCC MYA-1237(R) (strain F); assay: microbe, parasite or virus in culture; format: cell-based, Candida albicans; settings: strain F; compounds 1-4n and AmB; 48 h, RPMI 1640
Experimental: as §1, §2
as §3, with “C. […]” for “C.”

[13] = test system: C. albicans ATCC MYA-1003(R) (strain G); assay: microbe, parasite or virus in culture; format: cell-based, Candida albicans; settings: strain G; compounds 1-4n and AmB; 48 h, RPMI 1640
Experimental: as §1, §2
as §3, with “C. […]” for “C.”

Row | SMILES | MIC-0 [1] [mg/L] | MIC-0 [2] [mg/L] | MIC-0 [3] [mg/L] | MIC-0 [4] [mg/L] | MIC-0 [5] [mg/L] | MIC-0 [6] [mg/L] | MIC-0 [7] [mg/L] | MIC-0 [8] [mg/L] | MIC-0 [9] [mg/L] | MIC-0 [10] [mg/L] | MIC-0 [11] [mg/L] | MIC-0 [12] [mg/L] | MIC-0 [13] [mg/L] | MIC ([1]; Aspergillus flavus, read-out: MIC-0) [mg/L] | MIC ([2]; Aspergillus terreus, read-out: MIC-0) [mg/L] | MIC ([7]; Pichia kudriavzevii, ATCC6258, azoles, read-out: MIC-2) [mg/L] | MIC ([8]; Lodderomyces parapsilosis, ATCC22019, azoles, read-out: MIC-2) [mg/L] | MIC ([9]; Nakaseomyces glabratus, ATCC2001, azoles, read-out: MIC-2) [mg/L]
1 | O=c1c2ccccc2sn1-c1ccc(F)cc1 [Compound 2b] | 6.25 (≈ 25.5 µM) | 12.5 (≈ 51 µM) | 12.5 (≈ 51 µM) | 3.13 (≈ 12.8 µM) | 3.13 (≈ 12.8 µM) | 3.13 (≈ 12.8 µM) | 3.13 (≈ 12.8 µM) | 12.5 (≈ 51 µM) | 6.25 (≈ 25.5 µM) | 6.25 (≈ 25.5 µM) | 3.13 (≈ 12.8 µM) | 6.25 (≈ 25.5 µM) | 1.56 (≈ 6.36 µM) | – | – | – | – | –
2 | O=c1c2ccccc2sn1-c1ccc(Cl)cc1 [Compound 2c] | 6.25 (≈ 23.9 µM) | 6.25 (≈ 23.9 µM) | 6.25 (≈ 23.9 µM) | 12.5 (≈ 47.8 µM) | 6.25 (≈ 23.9 µM) | 3.13 (≈ 12 µM) | 3.13 (≈ 12 µM) | 12.5 (≈ 47.8 µM) | 6.25 (≈ 23.9 µM) | >12.5 | 6.25 (≈ 23.9 µM) | 6.25 (≈ 23.9 µM) | 12.5 (≈ 47.8 µM) | – | – | – | – | –
3 | O=c1c2ccccc2sn1-c1ccc(Br)cc1 [Compound 2d] | 12.5 (≈ 40.8 µM) | 12.5 (≈ 40.8 µM) | 12.5 (≈ 40.8 µM) | 1.56 (≈ 5.09 µM) | 0.78 (≈ 2.55 µM) | 3.13 (≈ 10.2 µM) | 3.13 (≈ 10.2 µM) | 6.25 (≈ 20.4 µM) | 6.25 (≈ 20.4 µM) | 3.13 (≈ 10.2 µM) | 3.13 (≈ 10.2 µM) | 1.56 (≈ 5.09 µM) | 3.13 (≈ 10.2 µM) | – | – | – | – | –
4 | CC(C)c1cccc(-n2sc3ccccc3c2=O)c1 [Compound 2h] | 6.25 (≈ 23.2 µM) | 12.5 (≈ 46.4 µM) | 12.5 (≈ 46.4 µM) | 3.13 (≈ 11.6 µM) | 3.13 (≈ 11.6 µM) | 3.13 (≈ 11.6 µM) | 3.13 (≈ 11.6 µM) | 3.13 (≈ 11.6 µM) | 3.13 (≈ 11.6 µM) | 3.13 (≈ 11.6 µM) | 3.13 (≈ 11.6 µM) | 3.13 (≈ 11.6 µM) | 3.13 (≈ 11.6 µM) | – | – | – | – | –
5 | O=c1c2ccccc2sn1-c1cc(Br)cc(Br)c1 [Compound 2i] | 12.5 (≈ 32.5 µM) | 12.5 (≈ 32.5 µM) | 3.13 (≈ 8.13 µM) | 6.25 (≈ 16.2 µM) | 6.25 (≈ 16.2 µM) | 3.13 (≈ 8.13 µM) | 6.25 (≈ 16.2 µM) | 6.25 (≈ 16.2 µM) | 6.25 (≈ 16.2 µM) | 6.25 (≈ 16.2 µM) | 6.25 (≈ 16.2 µM) | 3.13 (≈ 8.13 µM) | 6.25 (≈ 16.2 µM) | – | – | – | – | –
6 | Cc1cc(C)cc(-n2sc3ccccc3c2=O)c1 [Compound 2j] | 12.5 (≈ 49 µM) | 12.5 (≈ 49 µM) | 12.5 (≈ 49 µM) | 1.56 (≈ 6.11 µM) | 0.78 (≈ 3.05 µM) | 3.13 (≈ 12.3 µM) | 12.5 (≈ 49 µM) | 12.5 (≈ 49 µM) | 12.5 (≈ 49 µM) | 6.25 (≈ 24.5 µM) | 12.5 (≈ 49 µM) | 3.13 (≈ 12.3 µM) | 3.13 (≈ 12.3 µM) | – | – | – | – | –
7 | COc1cc(OC)cc(-n2sc3ccccc3c2=O)c1 [Compound 2k] | 6.25 (≈ 21.8 µM) | 6.25 (≈ 21.8 µM) | 6.25 (≈ 21.8 µM) | 3.13 (≈ 10.9 µM) | 1.56 (≈ 5.43 µM) | 12.5 (≈ 43.5 µM) | 6.25 (≈ 21.8 µM) | 6.25 (≈ 21.8 µM) | 6.25 (≈ 21.8 µM) | 12.5 (≈ 43.5 µM) | 3.13 (≈ 10.9 µM) | 12.5 (≈ 43.5 µM) | 12.5 (≈ 43.5 µM) | – | – | – | – | –
8 | O=c1c2ccccc2sn1-c1cccc2ccccc12 [Compound 2l] | 12.5 (≈ 45.1 µM) | 12.5 (≈ 45.1 µM) | 12.5 (≈ 45.1 µM) | >12.5 | >12.5 | 6.25 (≈ 22.5 µM) | 6.25 (≈ 22.5 µM) | 12.5 (≈ 45.1 µM) | 12.5 (≈ 45.1 µM) | 12.5 (≈ 45.1 µM) | 3.13 (≈ 11.3 µM) | >12.5 | 6.25 (≈ 22.5 µM) | – | – | – | – | –
9 | O=c1c2ccccc2sn1-c1ccccn1 [Compound 2m] | 12.5 (≈ 54.8 µM) | 12.5 (≈ 54.8 µM) | 12.5 (≈ 54.8 µM) | 12.5 (≈ 54.8 µM) | 6.25 (≈ 27.4 µM) | 6.25 (≈ 27.4 µM) | 6.25 (≈ 27.4 µM) | 12.5 (≈ 54.8 µM) | 12.5 (≈ 54.8 µM) | 6.25 (≈ 27.4 µM) | 6.25 (≈ 27.4 µM) | 6.25 (≈ 27.4 µM) | 6.25 (≈ 27.4 µM) | – | – | – | – | –
10 | CCCCCCCCn1sc2ccccc2c1=O [Compound 3c] | ≤0.02 | ≤0.02 | ≤0.02 | 6.25 (≈ 23.7 µM) | 1.56 (≈ 5.92 µM) | 6.25 (≈ 23.7 µM) | 1.56 (≈ 5.92 µM) | 0.78 (≈ 2.96 µM) | 1.56 (≈ 5.92 µM) | 1.56 (≈ 5.92 µM) | 3.13 (≈ 11.9 µM) | 1.56 (≈ 5.92 µM) | 1.56 (≈ 5.92 µM) | – | – | – | – | –
11 | CCC(C)n1ncn(-c2ccc(N3CCN(c4ccc(OCC5COC(Cn6cncn6)(c6ccc(Cl)cc6Cl)O5)cc4)CC3)cc2)c1=O (stereo not drawn) [ITC, itraconazole, reference compound] | – | – | – | – | – | – | – | – | – | – | – | – | – | 0.48 (≈ 0.68 µM) | 0.975 (≈ 1.38 µM) | 0.48 (≈ 0.68 µM) | 0.12 (≈ 0.17 µM) | 7.8 (≈ 11.1 µM)
